{
  "source": "patent US11179348B2",
  "about": "“Combination comprising pterostilbene for the treatment of cancer” (FUNDACIÓN UNIVERSIDAD CATÓLICA DE VALENCIA SAN VICENTE …, priority 2015, dated 2021)",
  "key": {"[1]": {"assay": "Pter and metabolite levels in plasma, tumor, brain and pituitary after i.v. administration (LC-MS/MS)", "format": "in vivo, mice", "settings": "for highest concentration in plasma / highest concentration in tumors: 5 min after i.v. 30 mg Pter/kg", "method": "Determination of Pter and its Metabolites by High-Pressure Liquid Chromatography and Mass Spectrometry (LC-MS/MS).\nLC-MS/MS was carried out, as previously described (Ferrer, P. et al. Neoplasia 7, 37-47 (2005); Azzolini, M. et al. Mol Nutr Food Res 58, 2122-2132 (2014)) in detail, using a TSQ Vantage™ Triple Quadrupole Mass Spectrometer (Thermo Scientific, Waltham, Mass.) equipped with a Shimadzu LC-10ADvp. pump and a SLC-10Avp. controller system with a SIL-10ADvp. autoinjector."}, "[2]": {"system": "HT-29 colorectal carcinoma", "assay": "In vivo growth of HT-29 colorectal cancer xenografts", "set-up": "species or system human", "settings": "HT-29, day 21"}, "PC-3 cells": {"system": "PC-3 cells", "assay": "GSH levels and glutathione- and oxidative stress-related enzyme activities in PC-3 cells growing in vivo", "set-up": "species or system human", "settings": "PC-3, in vivo Pter, day 21", "method": "To measure enzyme activity, isolated tumor cells were homogenized in 0.1 M phosphate buffer (pH 7.2) at 4° C. GCL and GSS activities were measured as described previously (Obrador, E. et al. Hepatology 35, 74-81 (2002)). GPX (selenium dependent) activity was measured as described by Flohé and Gunzler (Flohe, L. & Gunzler, W. A. Methods Enzymol 105, 114-121 (1984)) using H2O2 as a substrate. GSR activity was determined as described by Akerboom and Sies (Akerboom, T. P. et al, Bull Eur Physiopathol Respir 17 Suppl, 221-227 (1981)). GGT activity was measured as described previously (Obrador, E. et al. Hepatology 35, 74-81 (2002)). GST activity was measured using an assay kit from Sigma. TXNRD activity, defined by the concentration of sodium-lipoate (disulfide) reduced to dehydrolipoate (dithiol) per milligram protein, was measured as previously described (Javvadi, P. et al. Cancer Res 70, 1941-1950 (2010)). SOD activity was measured as described by Flohé and Otting (Flohe, L. & Otting, F. Methods Enzymol 105, 93-104 (1984).) using 2 mM cyanide in the assay medium to distinguish mangano-type enzyme (SOD2) from the cuprozinc type (SOD1). CAT activity was analyzed as described by Aebi (Aebi, H. Methods Enzymol 105, 121-126 (1984)). NOX activity was measured by chemiluminescence following the methodology of Wind et al. (Wind, S. et al. Comparative pharmacology of chemically distinct NADPH oxidase inhibitors. Br J Pharmacol 161, 885-898 (2010)). Protein concentration was determined with the Pierce BCA protein assay (Fisher Scientific, Waltham, Mass.).\nGSH, GSSG, NADP^+ and NADPH Determination.\nGSH and GSSG were determined, following procedures previously described (Obrador, E. et al. PLoS One 9, e96466 (2014)), by LC/MS using the same equipment described above for pterostilbene determination. Cell processing was performed according to published methodology, where rapid N-ethylmaleimide derivatization was used to prevent GSH auto-oxidation (Asensi, M. et al. Anal Biochem 217, 323-328 (1994)). NADP^+ and NADPH were quantitated using an assay kit from Sigma (St. Louis, Mo.).\nIsolation of Tumor Cells from Mouse Xenografts Using Enzymatic Digestion and a double Ficoll gradient.\nTo maximize the amount of isolated cells, avoiding the use of RFP-transfected cells and subsequent laser microdissection, an alternative methodology was set up. To maximize cell yield and viability the following combination of enzymes was used: collagenase III (200 U/ml; Sigma-Aldrich), DNase I (200 U/ml; Sigma-Aldrich) and trypsin (5 mg/ml; Invitrogen), and a non-enzymatic dissociation buffer (NEDB, Invitrogen). Briefly, mice were killed, and tumors were removed (avoiding skin, muscle and fat) into cold culture media and processed immediately. The tumors were minced into 1-3 mm fragments, which were then incubated with the dissociation solution (see above) for 30 min at 37° C. The tumor fragments were mixed up and down every 10 min using a […] micropipette with a tip cut to a diameter adapted to tissue fragment size. After each incubation period, the fragments were filtered through a […] nylon mesh cell strainer (BD Biosciences, San Diego, Calif., USA). The released cells were centrifuged at 1200 r.p.m. for 2 min and stored in cold CO2-independent medium with 30% FCS at […]. Fresh dissociation solution was added to the remaining tissue fragments for 30 min. Dissociation was stopped when no additional cells were released. The fragments were pushed through a sieve and all cells from all incubation periods were pooled and counted.\nThe dissociated cells were layered onto a double Ficoll gradient (Histopaque; Sigma-Aldrich; densities 1.077 and 1.119) and spun at 700 g for 30 min at room temperature. Cells removed from both interfaces were pooled and washed two times in CO2-independent medium and stored at 4° C. Debris and red blood cell elimination was improved with the dual-density gradient. […]"}},
  "note": "Like-named read-outs stand apart in the source and are kept apart here.",
  "data": [
    {"smiles": "COc1cc(/C=C/c2ccc(O)cc2)cc(OC)c1", "note": "[Pter, trans-3,5-dimethoxy-4′-hydroxystilbene]", "values": [
      {"measurement": "approx. mean level in the hypophysis", "setting": "[1]; 10-30 min after i.v. 30 mg/kg", "result": "~15", "unit": "µM"},
      {"measurement": "level in whole brain", "setting": "[1]; 60 min after i.v. 30 mg/kg", "result": "approx. 1 nmol/g"},
      {"measurement": "level in whole brain", "setting": "[1]; 120 min after i.v. 30 mg/kg", "result": "non-detectable levels"},
      {"measurement": "highest concentration in plasma", "setting": "[1]; A2058-bearing mice", "result": "112 ± 17", "unit": "µM"},
      {"measurement": "highest concentration in tumors", "setting": "[1]; A2058 tumors", "result": "28 ± 7", "unit": "µM"},
      {"measurement": "highest concentration in tumors", "setting": "[1]; MeWo tumors", "result": "33 ± 7", "unit": "µM"},
      {"measurement": "highest concentration in plasma", "setting": "[1]; MeWo-bearing mice", "result": "116 ± 23", "unit": "µM"},
      {"measurement": "highest concentration in tumors", "setting": "[1]; MelJuso tumors", "result": "25 ± 7", "unit": "µM"},
      {"measurement": "highest concentration in plasma", "setting": "[1]; MelJuso-bearing mice", "result": "98 ± 13", "unit": "µM"},
      {"measurement": "levels in plasma after the last time point", "setting": "[1]; after 480 min", "result": "undetectable"},
      {"measurement": "levels in the hypophysis compared with the whole brain", "setting": "[1]; after i.v. 30 mg/kg", "result": "significantly higher"},
      {"measurement": "lowest concentration in plasma", "setting": "[1]; at 240-480 min after i.v. 30 mg Pter/kg", "result": "approx. 1 μM"},
      {"measurement": "half-life", "setting": "[1]; female, nu/nu nude, mouse, melanoma tumor, iv, 30 mg/kg, melanoma tumors, 30 mg Pter/kg i.v., read-out: half-life in the melanoma tumors", "result": "36 to 40", "unit": "min"},
      {"measurement": "half-life", "setting": "[1]; female, nu/nu nude, mouse, plasma, iv, 30 mg/kg, B16-F1-bearing mice, Pter 30 mg/kg i.v., read-out: half-life in circulating plasma", "result": 61.2, "unit": "min"},
      {"measurement": "half-life", "setting": "[1]; female, nu/nu nude, mouse, plasma, iv, 30 mg/kg, melanoma-bearing mice, 30 mg Pter/kg i.v., read-out: half-life in circulating plasma", "result": "70 to 73", "unit": "min"},
      {"measurement": "half-life", "setting": "[1]; female, nu/nu nude, mouse, tumor (B16-F1), iv, 30 mg/kg, B16-F1 tumors, Pter 30 mg/kg i.v., read-out: half-life in the tumors", "result": 29.3, "unit": "min"},
      {"measurement": "concentration at 180 min", "setting": "[1]; female, nu/nu nude, mouse, tumor, iv, 30 mg/kg, at 180 min after i.v. 30 mg Pter/kg, read-out: lowest concentration in tumors", "result": "~1000", "unit": "nM"},
      {"measurement": "approximate mean concentration within the tumor", "setting": "[1]; first hour after i.v. 30 mg Pter/kg", "result": "~15", "unit": "µM"},
      {"measurement": "main Pter-derived metabolite generated in vivo (plasma)", "setting": "[1]; i.v. 30 mg Pter/kg", "result": "pterostilbene-4′-sulfate (Pter-S)"},
      {"measurement": "Tumor vol.", "setting": "[2]", "result": "758 ± 214", "unit": "mm^3"},
      {"measurement": "CAT", "setting": "PC-3 cells", "result": "0.3 ± 0.1", "unit": "mU/10^6 cells"},
      {"measurement": "GCL", "setting": "PC-3 cells", "result": "27 ± 9", "unit": "mU/10^6 cells"},
      {"measurement": "GSH", "setting": "PC-3 cells", "result": "2.4 ± 1.1", "unit": "nmol/10^6 cells"},
      {"measurement": "GSS", "setting": "PC-3 cells", "result": "2.7 ± 0.7", "unit": "mU/10^6 cells"},
      {"measurement": "GSSG", "setting": "PC-3 cells", "result": "0.05 ± 0.02", "unit": "nmol/10^6 cells"},
      {"measurement": "SOD1", "setting": "PC-3 cells", "result": "0.05 ± 0.01", "unit": "U/10^6 cells"},
      {"measurement": "SOD2", "setting": "PC-3 cells", "result": "0.01 ± 0.005", "unit": "U/10^6 cells"}
    ]}
  ]
}
